EC50 data for 17 molecules are collected here from patent US11827629B2, “CDGSH iron sulfur domain 2 activators and use thereof” (National Health Research Institutes, priority 2021, dated 2023).

Bounds are passed on as bounds.

This assay concerns Cisd2 promoter with firefly luciferase reporter. The assay is described as follows: Cisd2-luciferase reporter assay in HEK293-CISD2 cells. It counts as cell-based. As to conditions: Homo sapiens, 24 hours incubation, luciferase luminescence. As to the method: A typical in vitro screening method includes the following steps: (i) obtaining an initial level of Cisd2 in a batch of human embryonic kidney cells 293 (HEK-293 cells) that express Cisd2, (ii) treating the batch of HEK-293 cells with a compound of this invention, and (iii) analyzing the level of Cisd2 after the treatment, thereby determining the potency of the compound as a Cisd2 activator.
Compounds 1-109 were tested for increasing the level of Cisd2 in human embryonic kidney cells 293 (HEK293), a transfected cell line expressing Cisd2, using the Cisd2-luciferase reporter assay as follows.
The transfected HEK293 cells stably expressed Cisd2 promoter with firefly luciferase reporter (HEK293-CISD2). They were kept in Dulbecco's modified Eagle's medium (DMEM) (Gibco, New York, NY, USA). Culture medium was supplemented with 10% heat-inactivated fetal bovine serum (FBS), 2 mM L-Glutamine, 1 mM sodium pyruvate, 0.1% MEM Non-Essential Amino Acids, 1 ug/ml puromycin and 1% penicillin/streptomycin (HyClone, Logan, UT, USA). The cells were maintained at 37° C. in an incubator (Thermo Fisher Scientific, New York, NY, USA) with an atmosphere of 5% CO2. The stably transfected cells were seeded in 384-well plates at a density of 3×10^3 cells/well. After incubation with tested compounds at 37° C. for 24 hours, ONE-Glo™ Luciferase Assay System (Promega, Madison, WI, USA) was added at room temperature for 5 minutes to detect any luciferase activity. Luminescence intensity was registered using plate reader Victor^2V (PerkinElmer, Boston, MA, USA).
EC50 values in this table are presented in three classes, i.e., A: <1 μM, B: 1 μM-5 μM, and C: 5 μM-10 μM.
Molecule `O=C(CS(=O)(=O)c1cccc(F)n1)N1Cc2ccccc2C1` [Compound 97, 1-(1,3-dihydro-2H-isoindol-2-yl)-2-[(6-fluoropyridin-2-yl)sulfonyl]ethanone] yielded an EC50 of less than 1 µM.

Turning to `O=C(CSc1ccccc1)N1Cc2cccc(F)c2C1` [Compound 66, 1-(4-fluoro-1,3-dihydro-2H-isoindol-2-yl)-2-(phenylsulfanyl)ethanone], the EC50 was less than 1 µM.

As for `O=C(CCS(=O)(=O)c1ccccc1Cl)N1Cc2ccccc2C1` [Compound 106, 3-[(2-chlorophenyl)sulfonyl]-1-(1,3-dihydro-2H-isoindol-2-yl)propan-1-one], the concentration giving a half-maximal response (EC50) was less than 1 µM.

In turn, `Cc1cnc(S(=O)(=O)CC(=O)N2Cc3ccccc3C2)s1` [Compound 37, 1-(1,3-dihydro-2H-isoindol-2-yl)-2-[(5-methyl-1,3-thiazol-2-yl)sulfonyl]ethanone] displayed an EC50 of 5 to 10 µM.

`O=C(CSc1ccccc1F)N1Cc2cc(F)c(F)cc2C1` [Compound 65, 1-(5,6-difluoro-1,3-dihydro-2H-isoindol-2-yl)-2-[(2-fluorophenyl)sulfanyl]ethanone] yielded an EC50 of less than 1 µM.

`O=C(N1Cc2ccc(F)cc2C1)C(F)(F)S(=O)(=O)c1ccccn1` [Compound 50, 2,2-difluoro-1-(5-fluoro-1,3-dihydro-2H-isoindol-2-yl)-2-(pyridin-2-ylsulfonyl)ethanone] yielded a concentration giving a half-maximal response (EC50) of less than 1 µM.

In the case of `O=C(CS(=O)(=O)c1ccccc1F)N1Cc2ccc(F)cc2C1` [Compound 92, 1-(5-fluoro-1,3-dihydro-2H-isoindol-2-yl)-2-[(2-fluorophenyl)sulfonyl]ethanone], the concentration giving a half-maximal response (EC50) was less than 1 µM.

With `O=C(CS(=O)(=O)c1ccc(Cl)s1)N1Cc2ccccc2C1` [Compound 88, 2-[(5-chlorothiophen-2-yl)sulfonyl]-1-(1,3-dihydro-2H-isoindol-2-yl)ethanone], the 50% effective concentration (EC50) is less than 1 µM.

For the molecule `O=C(CSc1ccccn1)N1Cc2ccc(N3CCOCC3)cc2C1` [Compound 77, 1-[5-(morpholin-4-yl)-1,3-dihydro-2H-isoindol-2-yl]-2-(pyridin-2-ylsulfanyl)ethanone], the EC50 was 5 to 10 µM.

Molecule `O=C(CCS(=O)(=O)c1ccccc1)N1Cc2ccccc2C1` [Compound 107, 1-(1,3-dihydro-2H-isoindol-2-yl)-3-(phenylsulfonyl)propan-1-one] had an EC50 of less than 1 µM.

Take `COC(=O)c1ccc2c(c1)CN(C(=O)CSc1nccs1)C2` [Compound 9, methyl 2-[(1,3-thiazol-2-ylsulfanyl)acetyl]-2,3-dihydro-1H-isoindole-5-carboxylate]: the EC50 was less than 1 µM.

As to `O=C(CS(=O)(=O)c1ncccc1F)N1Cc2ccccc2C1` [Compound 103, 1-(1,3-dihydro-2H-isoindol-2-yl)-2-[(3-fluoropyridin-2-yl)sulfonyl]ethanone], the 50% effective concentration (EC50) is less than 1 µM.

The molecule `O=C(CS(=O)(=O)c1ccc(F)cc1)N1Cc2ccccc2C1` [Compound 87, 1-(1,3-dihydro-2H-isoindol-2-yl)-2-[(4-fluorophenyl)sulfonyl]ethanone] gave an EC50 of less than 1 µM.

In turn, `O=C(CS(=O)(=O)c1cccs1)N1Cc2ccccc2C1` [Compound 46, 1-(1,3-dihydro-2H-isoindol-2-yl)-2-(thiophen-2-ylsulfonyl)ethanone] registered an EC50 of less than 1 µM.

As for `Nc1ccc2c(c1)CN(C(=O)CSc1ccccn1)C2` [Compound 15, 1-(5-amino-1,3-dihydro-2H-isoindol-2-yl)-2-(pyridin-2-ylsulfanyl)ethanone], the EC50 lay within 1 to 5 µM.

As to `O=C(CS(=O)(=O)c1cccc(Cl)n1)N1Cc2ccccc2C1` [Compound 42, 2-[(6-chloropyridin-2-yl)sulfonyl]-1-(1,3-dihydro-2H-isoindol-2-yl)ethanone], the EC50 was 1 to 5 µM.

Turning to `Cn1ccc(SCC(=O)N2Cc3ccccc3C2)n1` [Compound 70, 1-(1,3-dihydro-2H-isoindol-2-yl)-2-[(1-methyl-1H-pyrazol-3-yl)sulfanyl]ethanone], the concentration giving a half-maximal response (EC50) lay in the range of 1 to 5 µM.
